Measurements published in ChEMBL document CHEMBL3751673, “Illuminating the binding interactions of galactonoamidines during the inhibition of β-galactosidase (E. coli)” (Bioorg Med Chem, 2016).

What follows are compounds tested against Beta-galactosidase (Escherichia coli, UniProt Q8VNN2) (assay: Competitive inhibition of Escherichia coli beta-galactosidase assessed as p-nitrophenyl-beta-D-galactopyranoside substrate hydrolysis by UV/Vis spectroscopy).
Sequence of Beta-galactosidase (Q8VNN2 whole entry): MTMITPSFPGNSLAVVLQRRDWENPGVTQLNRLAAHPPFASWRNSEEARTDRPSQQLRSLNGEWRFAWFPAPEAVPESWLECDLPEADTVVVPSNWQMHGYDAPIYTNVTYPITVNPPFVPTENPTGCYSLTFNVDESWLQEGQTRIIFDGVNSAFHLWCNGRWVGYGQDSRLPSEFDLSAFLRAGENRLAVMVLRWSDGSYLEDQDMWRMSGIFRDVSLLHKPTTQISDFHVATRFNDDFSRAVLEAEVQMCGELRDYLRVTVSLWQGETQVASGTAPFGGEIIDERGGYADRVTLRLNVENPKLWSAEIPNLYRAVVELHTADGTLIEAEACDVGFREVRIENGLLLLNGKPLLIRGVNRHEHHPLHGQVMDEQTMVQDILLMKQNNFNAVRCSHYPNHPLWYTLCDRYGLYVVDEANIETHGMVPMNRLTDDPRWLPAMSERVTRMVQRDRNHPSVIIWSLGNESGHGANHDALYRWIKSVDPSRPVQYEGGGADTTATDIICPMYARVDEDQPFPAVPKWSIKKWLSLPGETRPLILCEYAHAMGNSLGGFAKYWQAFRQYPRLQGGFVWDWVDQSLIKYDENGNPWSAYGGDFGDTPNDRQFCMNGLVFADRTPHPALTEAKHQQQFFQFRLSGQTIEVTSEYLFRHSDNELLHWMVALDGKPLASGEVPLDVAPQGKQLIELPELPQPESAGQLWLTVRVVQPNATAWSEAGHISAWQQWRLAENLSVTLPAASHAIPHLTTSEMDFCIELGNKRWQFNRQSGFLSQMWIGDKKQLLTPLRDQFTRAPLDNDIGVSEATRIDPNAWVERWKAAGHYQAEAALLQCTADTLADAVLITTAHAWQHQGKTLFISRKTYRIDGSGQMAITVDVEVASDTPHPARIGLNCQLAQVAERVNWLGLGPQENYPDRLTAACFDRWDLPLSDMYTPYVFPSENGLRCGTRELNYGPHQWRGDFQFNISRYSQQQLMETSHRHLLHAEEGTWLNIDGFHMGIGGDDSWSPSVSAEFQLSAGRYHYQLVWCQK

Row | Structure (SMILES) | Ki [nM]
1 | Cc1ccc(C/N=C2\N[C@H](CO)[C@H](O)[C@H](O)[C@H]2O)cc1 | 0.06
2 | Cc1ccc(CNC2=N[C@H](CO)[C@H](O)[C@H](O)C2)cc1 | 1.3
3 | CO[C@@H]1[C@H](O)[C@@H](O)C(NCc2ccc(C)cc2)=N[C@@H]1CO | 32
4 | CO[C@H]1C(NCc2ccc(C)cc2)=N[C@H](CO)[C@H](O)[C@@H]1O | 42
